According to patent US9914735B2, “Heteroaryl Syk inhibitors” (Boehringer Ingelheim International GmbH, priority 2014, dated 2018):
Like-named read-outs stand apart in the source and are kept apart here.

Experiments:
[1] = target: Recombinant human Aurora B (amino acids 1-344) (Homo sapiens (Human), UniProt Q96GD4); test: Aurora B kinase test (ADP Glo luminescence); format: biochemical
Description: The activity of the Aurora B kinase protein was determined using the ADP Glo® Luminescence Kinase test (Promega; V9103X).
Serial Dilution is done in 1:10 steps in 100% DMSO.
Then 20 μl Kinase detection mix (Detection Buffer #V913B Promega; Kinase Detection Substrate #V914B Promega) were added and incubated for 40 minutes at room temperature.
(§1) The output file of the reader is a csv file that contains the well number and measured RLU. For data evaluation and calculation, the measurement of the negative control was set as 0% ctrl and the measurement of the positive control was set as 100% ctrl. Based on this values the % value for the measurement of each substance concentration was calculated using an Assay Explorer software (Accelrys). Normally, the % ctrl values calculated are between 0% and 100% values but may also occur outside these limits in individual cases based on variability or compound characteristics. The IC50 values were calculated from the % ctrl values using Assay Explorer software. Calculation: [y=(a−d)/(1+(x/c)^b)+d], a=low value, d=high value; x=conc M; c=IC50 M; b=hill; y=% ctrl.

FLT3 = FLT3 (Homo sapiens (Human), UniProt P36888); test: FLT3 kinase test (Z'-LYTE); format: biochemical
Description: The activity of FLT3 is measured using the Z′-LYTETM assay technology from Invitrogen (#PV3191)
The reaction is started by addition of 2.5 μl of the 4×ATP solution.
Positive controls are reaction mixtures containing no test compound; negative controls (blanks) are reaction mixtures containing no kinase. As a further control, the phosphopeptide solution is added to wells without kinase (=100% phosphorylation control).
The reaction is performed for 1 h at room temperature before 5 μl of the development solution is added. After a further incubation for 1 h at room temperature 5 μl of the stop reagent is added.
The output text file is evaluated in an “MS-Excel—VB-Makro” and “GraphPadPrism” (Version 5) (GraphPad Software Inc.) is used to calculate the results. Data for the inhibition of FLT3 are reported in M. data for the inhibition of the protease are reported in % CTL.

Human GSK3beta = Human GSK3beta (Homo sapiens (Human), UniProt P49841); test: GSK 3beta kinase test (Z'-LYTE); format: biochemical; conditions: read-out: IC50 in μM (GSK3beta-Inhibition)
Description: Human GSK3beta (expressed and prified from SF21 cells) is obtained from the University Dundee/Scotland (Dr. James Hastie—Dept. of Biochemistry) in 50 mM Tris (pH7.5); 150 mM NaCl; 0.1 mM EGTA, 270 mM Succrose, 0.1% β-mercaptoethanol, 1 mM benzamidine, 0.2 mM PMSF; sequence see below). The enzyme is diluted to 3.56 μM (168 μg/ml) in enzyme dilution buffer and 6 μl aliquots are stored at −80° C.
The activity of GSK3 kinase protein is measured using the Z′-LYTETM assay technology from Invitrogen (# PV3324).
The assay is performed in 384 black plates from Corning (#3676) in a final volume of 10 μl by adding 5 μl of kinase peptide mix and 2.5 μl of compound dilution. The reaction is started by addition of 2.5 μl of the 4×ATP solution.
Positive controls are reaction mixtures containing no test compound; negative controls (blanks) are reaction mixtures containing no ATP. As a further control, the phosphopeptide solution is added to wells without kinase and without ATP (=100% phosphorylation control).
The non inhibited kinase reaction will result in a phosphorylation corresponding to 20%-30% of the phosphorylation control.
The reaction is performed 1 h at room temperature. After 1h 5 μl of the development solution is added. After a further incubation for 1 h at room temperature 5 μl of the stop reagent is added. Finally the plates are read on a Flex Station II 384 (Molecular Devices).
The output text file is evaluated in an “MS-Excel—VB-Makro” and “GraphPadPrism” (Version 5) (GraphPad Software Inc.) is used to calculate the results. Data for the inhibition of GSK3beta are reported in M. data for the inhibition of the protease are reported in % CTL.

[2] = Human liver microsomal stability test; format: in vitro ADME; conditions: for microsomal stability Cl [% Qh]: human liver microsomes, Qh = liver blood flow
Description: The metabolic degradation for a specific SYK-inhibitor is performed at 37° C. with pooled human liver microsomes (human liver microsomes are commercially available as “BD UltraPool™” by Corning Life Sciences, Fogostraat 12, 1060 LJ Amsterdam, The Netherlands). The final incubation volume of 100 μl per time point contains TRIS buffer pH 7.6 at RT (0.1 M), magnesium chloride (5 mM), microsomal protein (1 mg/ml) and the test compound at a final concentration of 1 μM.
Following a short preincubation period at 37° C., the reaction is initiated by addition of beta-nicotinamide adenine dinucleotide phosphate in its reduced form (NADPH, 1 mM) and terminated by transfering an aliquot into solvent after different time points. Additionally, the NADPH-independent degradation is monitored in incubations without NADPH, terminated at the last time point.
The quenched (terminated) incubations are then pelleted by centrifugation (10000 g, 5 min).
An aliquot of the supernatant is assayed by LC-MS/MS for the remaining amount of parent compound. The half-life (t1/2 INVITRO) is determined by the slope of the semilogarithmic plot of the concentration-time profile.
The intrinsic clearance (CL_[…]) is calculated by considering the amount of protein in the incubation: CL_[…][μl/min/mg protein]=(Ln 2/(t1/2 INVITRO[min]*protein content[mg/ml]))*1000
The protein content [mg/ml] was determined with the “Bicinchoninic Acid Kit” of Sigma Aldrich (commercially available).
The upscaled intrinsic Clearance (CL_UP_INT) is calculated by considering the liver weight [g liver/kg body weight] and the microsomal recovery [mg protein/g liver]: CL_UP_INT[ml/min/kg]=0.001*CL_[…]*liver weight*microsomal recovery • with microsomal recovery=45 mg protein/g liver • with liver weight=25.7 g liver/kg body weight
The percent hepatic blood flow (% Qh) is finally calculated by considering the human liver blood flow Q [ml/min/kg]: % Qh[%]=((Q*CL_UP_INT)/(Q+CL_UP_INT)/Q)*100 • with liver blood flow (Q)=20.7 ml/min/kg.

[3] = target: Recombinant human Syk (amino acids 342-635), GST-Syk kinase fusion protein (Homo sapiens (Human), UniProt P43405); test: Syk kinase test (Kinase Glo luminescence); format: biochemical; conditions: read-out: IC50 in μM (SYK-Inhibition)
Description: as §1, with “measured relative light units (RLU).” for “measured RLU.”, “as 100%” for “as 0%”, “as 0%” for “as 100%”, “software. Calculation:[y=(a−d)/(1+(x/c)^b)+d]” for “software. Calculation: [y=(a−d)/(1+(x/c)^b)+d],”

[4] = read-out: IC50 in μM (AURB-Inhibition)
[5] = read-out: IC50 in μM (FLT3-Inhibition)

Chain of Recombinant human Aurora B (amino acids 1-344) (Q96GD4 whole entry, the tested form may be a part): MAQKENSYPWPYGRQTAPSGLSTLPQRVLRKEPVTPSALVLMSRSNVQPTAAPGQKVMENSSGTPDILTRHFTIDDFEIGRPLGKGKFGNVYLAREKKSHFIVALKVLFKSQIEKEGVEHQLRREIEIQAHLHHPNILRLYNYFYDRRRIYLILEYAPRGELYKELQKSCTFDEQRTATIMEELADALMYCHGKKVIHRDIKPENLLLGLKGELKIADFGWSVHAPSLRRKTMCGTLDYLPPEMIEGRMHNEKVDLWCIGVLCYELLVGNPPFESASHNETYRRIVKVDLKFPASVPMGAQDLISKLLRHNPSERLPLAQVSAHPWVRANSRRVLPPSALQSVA
Chain of FLT3 (P36888 27-993): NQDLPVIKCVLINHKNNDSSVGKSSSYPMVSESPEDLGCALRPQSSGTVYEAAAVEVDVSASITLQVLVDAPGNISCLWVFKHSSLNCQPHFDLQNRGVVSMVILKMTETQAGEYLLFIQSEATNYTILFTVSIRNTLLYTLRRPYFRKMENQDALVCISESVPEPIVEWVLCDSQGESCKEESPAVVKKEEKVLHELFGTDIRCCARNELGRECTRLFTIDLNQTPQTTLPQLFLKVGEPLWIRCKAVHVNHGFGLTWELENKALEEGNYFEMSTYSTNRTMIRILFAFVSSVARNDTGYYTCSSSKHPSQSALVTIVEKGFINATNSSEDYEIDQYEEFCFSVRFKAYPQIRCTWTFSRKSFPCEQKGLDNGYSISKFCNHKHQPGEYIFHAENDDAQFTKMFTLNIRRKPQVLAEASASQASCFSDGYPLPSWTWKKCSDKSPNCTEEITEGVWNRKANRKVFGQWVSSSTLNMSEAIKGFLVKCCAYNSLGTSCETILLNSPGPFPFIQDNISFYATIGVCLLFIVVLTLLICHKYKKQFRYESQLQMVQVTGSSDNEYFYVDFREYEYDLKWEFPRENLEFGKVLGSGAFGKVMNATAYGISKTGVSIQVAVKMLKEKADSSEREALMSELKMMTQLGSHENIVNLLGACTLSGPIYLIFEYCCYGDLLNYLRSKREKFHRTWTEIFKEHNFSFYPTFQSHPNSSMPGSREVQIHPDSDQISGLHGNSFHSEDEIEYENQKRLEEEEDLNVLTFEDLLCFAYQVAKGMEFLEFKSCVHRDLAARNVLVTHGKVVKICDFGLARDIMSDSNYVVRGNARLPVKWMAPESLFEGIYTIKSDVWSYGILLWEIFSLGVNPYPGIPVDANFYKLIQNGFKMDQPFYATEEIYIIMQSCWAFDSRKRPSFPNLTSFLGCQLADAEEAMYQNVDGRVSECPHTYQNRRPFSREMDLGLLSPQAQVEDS
Chain of Human GSK3beta (P49841 whole entry): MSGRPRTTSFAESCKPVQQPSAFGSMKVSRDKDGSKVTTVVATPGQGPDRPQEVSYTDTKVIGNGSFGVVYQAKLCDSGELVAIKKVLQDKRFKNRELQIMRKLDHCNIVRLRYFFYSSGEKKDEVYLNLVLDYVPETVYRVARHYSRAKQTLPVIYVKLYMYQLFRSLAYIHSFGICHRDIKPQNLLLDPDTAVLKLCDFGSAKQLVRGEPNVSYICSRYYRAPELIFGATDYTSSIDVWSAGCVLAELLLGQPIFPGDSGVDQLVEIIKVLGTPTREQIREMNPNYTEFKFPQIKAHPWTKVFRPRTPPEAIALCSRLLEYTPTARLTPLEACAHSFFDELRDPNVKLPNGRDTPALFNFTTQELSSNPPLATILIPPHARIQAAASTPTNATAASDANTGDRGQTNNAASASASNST

IC50 [1, 4] | IC50 (FLT3; [5]) | IC50 (Human GSK3beta) | microsomal stability Cl [% Qh] [2] | IC50 [3] | IC50 ([1]; Table 1, read-out: AURB-inhibition IC50-value) | IC50 (FLT3; Table 1, read-out: FLT3-inhibition IC50-value) | IC50 ([1]; read-out: IC50-values with regard to AURB) | human liver microsomal stability CI [2] | SMILES
5.09 µM | 1.53 µM | > 10 µM |  |  |  |  |  |  | C[C@@H](Oc1nc(-c2ccc(OC(F)(F)F)c(F)c2)cc2ncccc12)[C@H]1CNC(=O)C1 [1 of WO 2011/092128]
16.9 µM | 7.39 µM | > 10 µM | 81 % Qh |  |  |  |  |  | COc1cc(-c2cc(O[C@H](C)[C@H]3CNC(=O)C3)c3cccnc3c2)cc(OC)c1OC [2 of WO 2013/014060]
1.85 µM | 0.633 µM | > 10 µM | 33 % Qh | 0.003 µM |  |  |  |  | COc1cc(-c2cc3ncccc3c(O[C@H](C)[C@H]3CNC(=O)C3)n2)ccc1OC(F)(F)F [4 of WO 2011/092128]
1.03 µM | 0.64 µM | > 1 µM | 24 % Qh | 0.004 µM |  |  |  |  | C[C@@H](Oc1cc(-c2ccccn2)cc2ncccc12)[C@H]1CNC(=O)C1 [6 of WO 2013/014060]
2.33 µM | 0.452 µM | > 10 µM | 79 % Qh |  |  |  |  |  | COc1cc(-c2cc3ncccc3c(O[C@H](C)[C@H]3CNC(=O)C3)n2)cc(Cl)c1OC [7 of WO 2011/092128]
> 50 µM | > 50 µM | > 10 µM | 77 % Qh |  |  |  |  |  | COc1cc(-c2cc3ncccc3c(O[C@H](C)[C@H]3CNC(=O)C3)n2)cc(OC)c1Cl [8 of WO 2011/092128]
0.643 µM | 0.369 µM | > 10 µM | 58 % Qh |  |  |  |  |  | COc1ccc(-c2cc(O[C@H](C)[C@H]3CNC(=O)C3)c3cccnc3c2)cc1OC [8 of WO 2013/014060]
0.271 µM | 0.312 µM | > 10 µM | 57 % Qh |  |  |  |  |  | COc1cc(-c2cc(O[C@H](C)[C@H]3CNC(=O)C3)c3cccnc3c2)ccc1OC(C)C [10 of WO 2013/014060]
0.752 µM |  | > 10 µM | 24 % Qh |  |  |  |  |  | COc1cc(-c2cc(O[C@H](C)[C@H]3CNC(=O)C3)c3cccnc3c2)ccc1O [11 of WO 2013/014060]
0.293 µM | 0.315 µM | > 10 µM | 44 % Qh |  |  |  |  |  | C[C@@H](Oc1cc(-c2ccc3ncccc3c2)cc2ncccc12)[C@H]1CNC(=O)C1 [29 of WO 2013/014060]
0.308 µM | 0.505 µM | > 10 µM | 37 % Qh |  |  |  |  |  | C[C@@H](Oc1cc(-c2ccc3[nH]cnc3c2)cc2ncccc12)[C@H]1CNC(=O)C1 [41 of WO 2013/014060]
0.63 µM | 0.618 µM | > 10 µM | <23 % Qh |  |  |  |  |  | C[C@@H](Oc1cc(-c2ccc3cnn(C)c3c2)cc2ncccc12)[C@H]1CNC(=O)C1 [42 of WO 2013/014060]
0.144 µM | 0.157 µM |  | <23 % Qh |  |  |  |  |  | C[C@@H](Oc1cc(-c2ccc(CN3CCOCC3)cc2)cc2ncccc12)[C@H]1CNC(=O)C1 [43 of WO 2013/014060]
0.25 µM | 0.411 µM | > 10 µM | <23 % Qh |  |  |  |  |  | Cc1cn2cc(-c3cc(O[C@H](C)[C@H]4CNC(=O)C4)c4cccnc4c3)ccc2n1 [61 of WO 2013/014060]
0.075 µM | 0.169 µM | > 10 µM | <23 % Qh |  |  |  |  |  | C[C@@H](Oc1cc(-c2ccc(C(=O)N3CCN(C)CC3)cc2)cc2ncccc12)[C@H]1CNC(=O)C1 [76 of WO 2013/014060]
0.949 µM | 0.514 µM | > 10 µM | <23 % Qh |  |  |  |  |  | C[C@@H](Oc1cc(-c2ccc3ncn(C)c3c2)cc2ncccc12)[C@H]1CNC(=O)C1 [81 of WO 2013/014060]
1.05 µM | 0.14 µM | > 10 µM | <23 % Qh |  |  |  |  |  | C[C@@H](Oc1cc(-c2ccc3c(c2)CNCC3)cc2ncccc12)[C@H]1CNC(=O)C1 [101 of WO 2013/014060]
> 50 µM | 13.5 µM | > 10 µM | <23 % Qh |  | > 50 µM | 13.5 µM |  |  | COc1cc(-c2cc3nn(C)cc3c(O[C@H](C)[C@H]3CNC(=O)C3)n2)ccc1O [Example 8, (4R)-4-[(1R)-1-[6-(4-Hydroxy-3-methoxy-phenyl)-2-methyl-pyrazolo[4,3-c]pyridin-4-yl]oxyethyl]pyrrolidin-2-one]
 |  | > 10 µM | 25 % Qh |  |  |  |  |  | C[C@@H](Oc1cc(-c2ccc(N3CCOCC3)cc2)cc2nn(C)cc12)[C@H]1CNC(=O)C1 [Example 22, (4R)-4-[(1R)-1-[2-Methyl-6-(4-morpholinophenyl)indazol-4-yl]oxyethyl]-pyrrolidin-2-one]
 |  |  |  |  |  |  | > 50 µM | 77 % Qh | COc1cc(-c2cc3ncccc3c(O[C@H](C)[C@H]3CNC(=O)C3)n2)cc(OC)c1Cl [example 8 of WO 2011/092128, reference compound]

SMILES | IC50 [1, 4] | IC50 (FLT3; [5]) | IC50 (Human GSK3beta) | microsomal stability Cl [% Qh] [2] | IC50 [3] | IC50 ([1]; Table 1, read-out: AURB-inhibition IC50-value) | IC50 (FLT3; Table 1, read-out: FLT3-inhibition IC50-value) | IC50 ([1]; read-out: IC50-values with regard to AURB) | human liver microsomal stability CI [2]
COc1cc(-c2cc3ncccc3c(O[C@H](C)[C@H]3CNC(=O)C3)n2)cc(OC)c1OC [35 of WO 2011/092128] | 5.21 µM | 1.18 µM | > 10 µM | 62 % Qh | 0.001 µM |  |  |  | 
